Columns and labels:
[1] = molecular target: T1, Siglec-G (Mus musculus, UniProt Q80ZE3); details: cited from earlier work
T1 sequence (Q80ZE3 18-688): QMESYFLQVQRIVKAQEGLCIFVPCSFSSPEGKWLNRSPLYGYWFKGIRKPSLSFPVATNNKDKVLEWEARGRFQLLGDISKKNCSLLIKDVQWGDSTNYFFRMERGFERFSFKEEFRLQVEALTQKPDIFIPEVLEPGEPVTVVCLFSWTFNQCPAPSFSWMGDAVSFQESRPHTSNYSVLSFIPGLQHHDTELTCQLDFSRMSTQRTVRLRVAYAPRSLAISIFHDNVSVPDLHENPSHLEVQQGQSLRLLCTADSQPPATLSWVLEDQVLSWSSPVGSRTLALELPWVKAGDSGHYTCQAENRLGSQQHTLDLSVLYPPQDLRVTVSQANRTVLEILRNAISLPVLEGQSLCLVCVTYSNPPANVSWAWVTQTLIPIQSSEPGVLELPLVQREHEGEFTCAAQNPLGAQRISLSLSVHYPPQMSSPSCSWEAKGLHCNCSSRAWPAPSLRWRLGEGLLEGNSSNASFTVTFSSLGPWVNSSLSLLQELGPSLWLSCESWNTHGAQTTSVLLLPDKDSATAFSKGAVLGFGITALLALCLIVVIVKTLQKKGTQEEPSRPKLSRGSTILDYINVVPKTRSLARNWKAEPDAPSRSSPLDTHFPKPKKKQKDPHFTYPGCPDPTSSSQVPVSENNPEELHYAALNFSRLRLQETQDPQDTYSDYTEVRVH

[2] = test system: C57BL/6J mice; assay: Tolerance induction to T-dependent antigen HEL in mice (anti-HEL titers by ELISA); assay type: in vivo, mouse; details: for antibody suppression with varying amounts of ligand on HEL STALs: end of 44-day experiment, two challenges with immunogenic liposomes on days 15 and 30
Experimental: Whole blood (50 μL) was collected from mice via a retro-orbital bleed to obtain the serum after centrifugation (17,000 g, 1 min). Serum was aliquoted and stored at −20° C. Liposomes were delivered via the lateral tail vein in a volume of 200 μL. For studies involving a challenge with soluble (non-liposomal) antigen, mice were injected with 200 μg of HEL dissolved in HBSS and delivered intraperitoneally.
Maxisorp plates were coated (0/N, 4° C.) with the relevant protein (50 μL/well, 10 μg/mL) in PBS. NP4-7-BSA in PBS (Biosearch Technologies) was used to look for anti-NP antibodies. The following day, plates were washed twice in TBS-T (0.1% Tween 20) and blocked (1 hr, RT) with TBS-T containing 1% BSA. Serum was initially diluted between 20-10,000-fold and diluted in 2-3 fold serial dilutions eight times on the ELISA plate. Plates were incubated (1 hr, 37° C.) with serum (50 μL/well), washed four times, and incubated (1 hr, 37° C.) with the appropriate HRP-conjugated secondary antibodies (1:2000, Santa Cruz Biotechnologies). Following five washes, plates were developed (RT, 15 min) in 75 μL/well of TMB substrate (Thermo Fisher) and quenched with 75 μL/well of 2N H2SO4. Absorbance was measured at 450 nm and the endpoint titer was calculated as the dilution of serum that produced an absorbance 2-fold above background.
All liposomes were composed of a 60:35:5 molar ratio of distearoyl phosphatidylcholine (DSPC; Avanti Polar Lipids), cholesterol (Sigma), and pegylated lipids. The total mol % of pegylated lipids was always kept at 5%; made up of the appropriate combination of polyethyleneglycol(PEG2000)-distearoyl phosphoethanolamine (PEG-DSPE; Avanti Polar Lipids), ^BPANeuGc-PEG2000-DSPE, ^BPCNeuAc-PEG2000-DSPE, NP-PEG2000-DSPE or Protein-PEG2000-DSPE. […] The diameter of the liposomes were measured on a zetasizer (Malvern) and were consistently in the range of 100-130±30 nm. […]

[3] = molecular target: T2, murine CD22 (Mus musculus, UniProt P35329); details: higher affinity than natural ligand; cited from earlier work
T2 sequence (P35329 22-868): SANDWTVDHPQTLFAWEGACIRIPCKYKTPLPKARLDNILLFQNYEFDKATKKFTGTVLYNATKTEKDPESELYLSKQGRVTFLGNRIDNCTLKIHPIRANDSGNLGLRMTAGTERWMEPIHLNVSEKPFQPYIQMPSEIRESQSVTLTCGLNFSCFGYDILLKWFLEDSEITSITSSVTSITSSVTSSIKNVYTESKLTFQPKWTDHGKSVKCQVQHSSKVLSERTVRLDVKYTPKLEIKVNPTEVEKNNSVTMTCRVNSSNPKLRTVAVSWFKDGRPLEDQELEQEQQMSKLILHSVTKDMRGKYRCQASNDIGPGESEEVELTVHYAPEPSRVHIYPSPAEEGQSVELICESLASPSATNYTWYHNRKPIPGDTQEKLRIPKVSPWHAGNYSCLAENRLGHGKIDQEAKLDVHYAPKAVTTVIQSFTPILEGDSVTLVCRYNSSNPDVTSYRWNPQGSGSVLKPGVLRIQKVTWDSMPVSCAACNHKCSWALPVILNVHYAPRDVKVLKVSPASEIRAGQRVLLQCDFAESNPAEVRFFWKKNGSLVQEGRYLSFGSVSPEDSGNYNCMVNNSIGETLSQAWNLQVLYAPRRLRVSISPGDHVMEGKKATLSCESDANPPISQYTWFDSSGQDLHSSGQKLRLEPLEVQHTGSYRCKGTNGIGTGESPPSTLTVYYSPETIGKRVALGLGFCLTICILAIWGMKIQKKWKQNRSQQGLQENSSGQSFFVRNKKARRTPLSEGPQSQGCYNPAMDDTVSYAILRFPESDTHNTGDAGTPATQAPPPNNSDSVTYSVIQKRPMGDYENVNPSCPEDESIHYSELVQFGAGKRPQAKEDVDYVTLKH

9-N-biphenylacetyl-NeuGcα2-6Galβ1-4GlcNAc [^BPANeuGc]
cross-reactivity with Siglec-G [1]: only a small degree of cross-reactivity | difference in EC50 between the two ligands (^BPANeuGc vs NeuGc) on HEL STALs ([2]; antibody suppression titration, FIG. 1E): two orders of magnitude difference | antibody suppression with varying amounts of ligand on HEL STALs [2]: dose-dependent effect on antibody suppression | affinity for murine CD22 relative to its natural ligand (NeuGcα2-6Galβ1-4GlcNAc) [3]: 200 fold

CC(=O)NC1C(O)OC(CO)C(OC2OC(COC3(C(=O)O)CC(O)C(NC(=O)CO)C(C(O)C(O)CO)O3)C(O)C(O)C2O)C1O (centres unmarked) [NeuGc, NeuGcα2-6Galβ1-4GlcNAc]
antibody suppression with varying amounts of ligand on HEL STALs [2]: dose-dependent effect on antibody suppression
